What is called IC50 is the midpoint of a concentration-inhibition curve. A low value points to inhibition by little substance. What is called IC90 is the concentration needed for an effect of 90%.

The structures appear in SMILES notation.

The test system of the first experiment is Staphylococcus aureus. The experiment can be described thus: Antimicrobial activity against methicillin-resistant Staphylococcus aureus ATCC 33591. The format is functional, organism-based.
For `Cc1ccc(O)c(O)c1`, the IC50 was found to be 72.9 µM.

Another experiment has as its system Staphylococcus aureus. The experiment can be described thus: Antimicrobial activity against Staphylococcus aureus ATCC 29213. Format: functional, organism-based.
The compound `Cc1ccc(O)c(O)c1` yielded an IC50 of 148 µM.

A further experiment relates to Leishmania donovani. The experiment can be described thus: Antileishmanial activity against promastigote forms of Leishmania donovani by alamar blue assay. Format: functional, organism-based.
Regarding `CC1=C[C@H](O)[C@H]2O[C@H]2C1=O`, the 50% inhibitory concentration (IC50) worked out at 6.9 µM and the IC90 came to 10.8 µM. `C[C@@H]1[C@H](O)[C@@H](C)/C=C/C=C/C=C/C=C/C=C/C=C/C=C/[C@H](O[C@@H]2O[C@H](C)[C@@H](O)[C@H](N)[C@@H]2O)C[C@@H]2O[C@](O)(C[C@@H](O)C[C@@H](O)[C@H](O)CC[C@@H](O)C[C@@H](O)CC(=O)O[C@H]1C)C[C@H](O)[C@H]2C(=O)O` [AMPHOTERICIN B] displayed a 90% effect concentration (IC90) of 0.4 µM.

`OCc1cccc(O)c1` showed a 50% inhibitory concentration (IC50) of 34 µM and an IC90 of 52.3 µM. The like results for `OCc1cc(O)cc(O)c1Cc1ccc(O)c(O)c1` were, in that order, 13 µM and 22 µM.

Regarding `N=C(N)c1ccc(OCCCCCOc2ccc(C(=N)N)cc2)cc1` [PENTAMIDINE], the IC50 came out at 3.2 µM and it took 5.9 µM to reach the 90% level (IC90).

For `CC1=C[C@@H](O)[C@H](O)CC1=O` (single isomer, unassigned), half-maximal inhibition (IC50) required 47.3 µM and the IC90 worked out at 61 µM.

Regarding `Cc1cccc(O)c1` [METACRESOL], the IC50 stood at 9.2 µM and the 90% effect concentration (IC90) stood at 12.4 µM. The matching figures for `O=Cc1cc(O)ccc1O`: 3.3 µM and 6.1 µM. The like results for `OCc1cc(O)ccc1O` [GENTISYL ALCOHOL] were, in that order, 8.5 µM and 10.4 µM.

(Values after ChEMBL document CHEMBL3351471, “Antileishmanial metabolites from Geosmithia langdonii” (J Nat Prod, 2014).)
